What all share (test): ERK1/2 phosphorylation
Assay type in all cases: cell-based
What all share (details): pERK maximal response, CV1-FlpIn cells, mean ± S.E.M.

The target in one experiment is T1, hCTR I300A (Homo sapiens, UniProt P30988, I300A).
T1 construct: c-Myc (N); expressed in transfected cells
T1 sequence (P30988 25-474 I300A): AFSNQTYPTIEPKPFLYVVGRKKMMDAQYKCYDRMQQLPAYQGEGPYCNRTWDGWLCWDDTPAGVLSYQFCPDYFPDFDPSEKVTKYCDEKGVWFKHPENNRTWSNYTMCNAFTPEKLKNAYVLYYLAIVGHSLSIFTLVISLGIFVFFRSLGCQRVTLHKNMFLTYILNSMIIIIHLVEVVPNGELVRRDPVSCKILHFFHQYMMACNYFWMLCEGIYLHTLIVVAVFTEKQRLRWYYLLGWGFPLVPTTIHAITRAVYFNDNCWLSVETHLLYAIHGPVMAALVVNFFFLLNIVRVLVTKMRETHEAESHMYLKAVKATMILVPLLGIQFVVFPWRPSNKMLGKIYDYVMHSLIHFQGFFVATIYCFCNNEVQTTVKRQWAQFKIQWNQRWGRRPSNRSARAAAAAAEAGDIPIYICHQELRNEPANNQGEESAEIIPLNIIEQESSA
An outline of the steps: (§1)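 Cells were seeded at 2.5 × 10^4 cells/well and cultured overnight before stimulation. ERK1/2 phosphorylation was normalized to the maximal response to 10% FBS measured at 6 min. EC50 and Emax came from a 3-parameter logistic fit of concentration-response curves.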

Another experiment concerns the target T2, hCTR R362A (Homo sapiens, UniProt P30988, R362A).
T2 construct: expressed in transfected cells
T2 sequence (P30988 25-474 R362A): T1 sequence (P30988 25-474 I300A) with A276I, R338A
Summed up:
as §1

In a further experiment the target is T3, hCTR F285A (Homo sapiens, UniProt P30988, F285A).
T3 construct: expressed in transfected cells
T3 sequence (P30988 25-474 F285A): T1 sequence (P30988 25-474 I300A) with F261A, A276I
Summed up:
as §1

The next experiment deals with T4, hCTR L297A (Homo sapiens, UniProt P30988, L297A).
T4 construct: c-Myc (N); expressed in transfected cells
T4 sequence (P30988 25-474 L297A): T1 sequence (P30988 25-474 I300A) with L273A, A276I
An outline of the steps: as §1

The target in another experiment is T5, hCTR V283A (Homo sapiens, UniProt P30988, V283A).
T5 construct: expressed in transfected cells
T5 sequence (P30988 25-474 V283A): T1 sequence (P30988 25-474 I300A) with V259A, A276I
An outline of the steps:
as §1

Changes are numbered by the printed parent chain.

The Emax is the maximal effect, on the per cent scale that the assay sets. Take `CC(C)C[C@H](NC(=O)[C@H](CCCCN)NC(=O)CNC(=O)[C@H](CC(C)C)NC(=O)[C@@H](NC(=O)[C@@H]1CSSC[C@H](N)C(=O)N[C@@H](CO)C(=O)N[C@@H](CC(N)=O)C(=O)N[C@@H](CC(C)C)C(=O)N[C@@H](CO)C(=O)N[C@@H]([C@@H](C)O)C(=O)N1)C(C)C)C(=O)N[C@@H](CO)C(=O)N[C@@H](CCC(N)=O)C(=O)N[C@@H](CCC(=O)O)C(=O)N[C@@H](CC(C)C)C(=O)N[C@@H](Cc1c[nH]cn1)C(=O)N[C@@H](CCCCN)C(=O)N[C@@H](CC(C)C)C(=O)N[C@@H](CCC(N)=O)C(=O)N[C@H](C(=O)N[C@@H](Cc1ccc(O)cc1)C(=O)N1CCC[C@H]1C(=O)N[C@@H](CCCNC(=N)N)C(=O)N[C@H](C(=O)N[C@@H](CC(N)=O)C(=O)N[C@H](C(=O)NCC(=O)N[C@@H](CO)C(=O)NCC(=O)N[C@H](C(=O)N1CCC[C@H]1C(N)=O)[C@@H](C)O)[C@@H](C)O)[C@@H](C)O)[C@@H](C)O` [sCT]: the Emax was determined as 63 ± 3% at hCTR I300A; 107 ± 10% at hCTR R362A; 114 ± 6% on hCTR F285A; 68 ± 4% on hCTR L297A; 133 ± 10% at hCTR V283A.

The values are drawn from paper PMC5908784, “Extracellular loops 2 and 3 of the calcitonin receptor selectively modify agonist binding and efficacy” (Biochemical Pharmacology, 2018).
